In US20150125889A1, “IN VITRO DETECTION OF MICROORGANISMS WITH AZOREDUCTASE ACTIVITY” (BIOMÉRIEUX, priority 2012, published 2015):

Columns and labels:
Assay in all cases: Reduction of azo substrates over 24 hours at 35° C., microtitration plate (Example 1)
Assay type in all cases: cell-based
Candida albicans = test system: Candida albicans; parameters: key to RED (substrate reduced or not): RED indicates whether the substrate is reduced (Y) or not (N); RED indicates whether the substrate is reduced (Y) or not (N); key to Co (growth, absorbance at 660 nm) / Decol (substrate decolourized, decrease in absorbance) / Fluo (fluorescence multiplied by 2 relative to substrate-free control): The symbol “+” means good growth/decolourization/significant increase in fluorescence; The symbol “+/−” means difficult growth; The symbol “−” means that there is no growth/decolourization/significant increase in fluorescence; details: substrate 35 mg/l
Experimental: (§1) Reduction of the “azo” function of the substrates listed in Table I by the species listed in Table II, each species being represented by a strain, is tested in a microtitration plate.
(§2) The reaction medium consists of: • Trypcase soya broth • Substrate 35 mg/l • 0.5 MacFarland inoculum
(§3) The reduction of the substrate and the growth of the microorganisms are monitored using an Infinite® M200 Tecan microplate reader at 35° C. over 24 hours.
(§4) The growth is monitored by the absorbance at 660 nm and the reduction of the substrates by absorbance and fluorescence at the specific wavelengths indicated in Table III.
(§5) The substrate is considered as reduced by the microorganisms when the substrate is decolourized (monitored by the decrease in absorbance) (Decol) and/or when the fluorescence of the substrate is multiplied by 2 relative to the base fluorescence of a substrate-free control (Fluo). The growth is indicated by Co. The symbol “+” means good growth/decolourization/significant increase in fluorescence. The symbol “+/−” means difficult growth. The symbol “−” means that there is no growth/decolourization/significant increase in fluorescence. RED indicates whether the substrate is reduced (Y) or not (N).

Cronobacter muytjensii = test system: Cronobacter muytjensii; parameters: key to RED (substrate reduced or not): RED indicates whether the substrate is reduced (Y) or not (N); RED indicates whether the substrate is reduced (Y) or not (N); key to Co (growth, absorbance at 660 nm) / Decol (substrate decolourized, decrease in absorbance) / Fluo (fluorescence multiplied by 2 relative to substrate-free control): The symbol “+” means good growth/decolourization/significant increase in fluorescence; The symbol “+/−” means difficult growth; The symbol “−” means that there is no growth/decolourization/significant increase in fluorescence; details: E. muytjensii, substrate 35 mg/l
Experimental: as §1, §2, §3, §4, §5

Escherichia coli = test system: Escherichia coli; parameters: key to RED (substrate reduced or not): RED indicates whether the substrate is reduced (Y) or not (N); RED indicates whether the substrate is reduced (Y) or not (N); key to Co (growth, absorbance at 660 nm) / Decol (substrate decolourized, decrease in absorbance) / Fluo (fluorescence multiplied by 2 relative to substrate-free control): The symbol “+” means good growth/decolourization/significant increase in fluorescence; The symbol “+/−” means difficult growth; The symbol “−” means that there is no growth/decolourization/significant increase in fluorescence; details: E. coli, substrate 35 mg/l
Experimental: as §1, §2, §3, §4, §5

Geotrichum candidum = test system: Geotrichum candidum; parameters: key to RED (substrate reduced or not): RED indicates whether the substrate is reduced (Y) or not (N); RED indicates whether the substrate is reduced (Y) or not (N); key to Co (growth, absorbance at 660 nm) / Decol (substrate decolourized, decrease in absorbance) / Fluo (fluorescence multiplied by 2 relative to substrate-free control): The symbol “+” means good growth/decolourization/significant increase in fluorescence; The symbol “+/−” means difficult growth; The symbol “−” means that there is no growth/decolourization/significant increase in fluorescence; details: G. candidum, substrate 35 mg/l
Experimental: as §1, §2, §3, §4, §5

Kocuria rosea = test system: Kocuria rosea; parameters: key to RED (substrate reduced or not): RED indicates whether the substrate is reduced (Y) or not (N); RED indicates whether the substrate is reduced (Y) or not (N); key to Co (growth, absorbance at 660 nm) / Decol (substrate decolourized, decrease in absorbance) / Fluo (fluorescence multiplied by 2 relative to substrate-free control): The symbol “+” means good growth/decolourization/significant increase in fluorescence; The symbol “+/−” means difficult growth; The symbol “−” means that there is no growth/decolourization/significant increase in fluorescence; details: K. rosea, substrate 35 mg/l
Experimental: as §1, §2, §3, §4, §5

Pseudomonas aeruginosa = test system: Pseudomonas aeruginosa; parameters: key to RED (substrate reduced or not): RED indicates whether the substrate is reduced (Y) or not (N); RED indicates whether the substrate is reduced (Y) or not (N); key to Co (growth, absorbance at 660 nm) / Decol (substrate decolourized, decrease in absorbance) / Fluo (fluorescence multiplied by 2 relative to substrate-free control): The symbol “+” means good growth/decolourization/significant increase in fluorescence; The symbol “+/−” means difficult growth; The symbol “−” means that there is no growth/decolourization/significant increase in fluorescence; details: P. aeruginosa, substrate 35 mg/l
Experimental: as §1, §2, §3, §4, §5

Staphylococcus aureus = test system: Staphylococcus aureus; parameters: key to RED (substrate reduced or not): RED indicates whether the substrate is reduced (Y) or not (N); RED indicates whether the substrate is reduced (Y) or not (N); key to Co (growth, absorbance at 660 nm) / Decol (substrate decolourized, decrease in absorbance) / Fluo (fluorescence multiplied by 2 relative to substrate-free control): The symbol “+” means good growth/decolourization/significant increase in fluorescence; The symbol “+/−” means difficult growth; The symbol “−” means that there is no growth/decolourization/significant increase in fluorescence; details: S. aureus, substrate 35 mg/l
Experimental: as §1, §2, §3, §4, §5

[1] = test system: Staphylococcus epidermidis; parameters: key to RED (substrate reduced or not): RED indicates whether the substrate is reduced (Y) or not (N); RED indicates whether the substrate is reduced (Y) or not (N); key to Co (growth, absorbance at 660 nm) / Decol (substrate decolourized, decrease in absorbance) / Fluo (fluorescence multiplied by 2 relative to substrate-free control): The symbol “+” means good growth/decolourization/significant increase in fluorescence; The symbol “+/−” means difficult growth; The symbol “−” means that there is no growth/decolourization/significant increase in fluorescence; details: S. epidermidis, substrate 35 mg/l
Experimental: as §1, §2, §3, §4, §5

Acinetobacter baumanii = test system: Acinetobacter baumanii; parameters: key to RED (substrate reduced or not): RED indicates whether the substrate is reduced (Y) or not (N); RED indicates whether the substrate is reduced (Y) or not (N); key to Decol (substrate decolourized, decrease in absorbance) / Fluo (fluorescence multiplied by 2 relative to substrate-free control) / Co (growth, absorbance at 660 nm): The symbol “+” means good growth/decolourization/significant increase in fluorescence; The symbol “+/−” means difficult growth; The symbol “−” means that there is no growth/decolourization/significant increase in fluorescence; details: A. baumannii, substrate 35 mg/l
Experimental: as §1, §2, §3, §4, §5

Enterococcus faecalis = test system: Enterococcus faecalis; parameters: key to RED (substrate reduced or not): RED indicates whether the substrate is reduced (Y) or not (N); RED indicates whether the substrate is reduced (Y) or not (N); key to Decol (substrate decolourized, decrease in absorbance) / Fluo (fluorescence multiplied by 2 relative to substrate-free control) / Co (growth, absorbance at 660 nm): The symbol “+” means good growth/decolourization/significant increase in fluorescence; The symbol “+/−” means difficult growth; The symbol “−” means that there is no growth/decolourization/significant increase in fluorescence; details: E. faecalis, substrate 35 mg/l
Experimental: as §1, §2, §3, §4, §5

SMILES: O=C(O)c1ccccc1/N=N/c1cc(Br)c(O)c(Br)c1 [2-(4-hydroxy-3,5-dibromophenylazo)benzoic acid]
- Co (growth, absorbance at 660 nm) (Candida albicans): +
- Decol (substrate decolourized, decrease in absorbance) (Candida albicans): −
- Fluo (fluorescence multiplied by 2 relative to substrate-free control) (Candida albicans): −
- RED (substrate reduced or not) (Candida albicans): N
- Co (growth, absorbance at 660 nm) (Cronobacter muytjensii): +
- Decol (substrate decolourized, decrease in absorbance) (Cronobacter muytjensii): +
- Fluo (fluorescence multiplied by 2 relative to substrate-free control) (Cronobacter muytjensii): +
- RED (substrate reduced or not) (Cronobacter muytjensii): Y
- Co (growth, absorbance at 660 nm) (Escherichia coli): +
- Decol (substrate decolourized, decrease in absorbance) (Escherichia coli): −
- Fluo (fluorescence multiplied by 2 relative to substrate-free control) (Escherichia coli): +
- RED (substrate reduced or not) (Escherichia coli): Y
- Co (growth, absorbance at 660 nm) (Geotrichum candidum): +
- Decol (substrate decolourized, decrease in absorbance) (Geotrichum candidum): −
- Fluo (fluorescence multiplied by 2 relative to substrate-free control) (Geotrichum candidum): +
- RED (substrate reduced or not) (Geotrichum candidum): Y
- Co (growth, absorbance at 660 nm) (Kocuria rosea): −
- Decol (substrate decolourized, decrease in absorbance) (Kocuria rosea): −
- Fluo (fluorescence multiplied by 2 relative to substrate-free control) (Kocuria rosea): −
- Co (growth, absorbance at 660 nm) (Pseudomonas aeruginosa): +
- Decol (substrate decolourized, decrease in absorbance) (Pseudomonas aeruginosa): −
- Fluo (fluorescence multiplied by 2 relative to substrate-free control) (Pseudomonas aeruginosa): −
- RED (substrate reduced or not) (Pseudomonas aeruginosa): N
- Co (growth, absorbance at 660 nm) (Staphylococcus aureus): +
- Decol (substrate decolourized, decrease in absorbance) (Staphylococcus aureus): +
- Fluo (fluorescence multiplied by 2 relative to substrate-free control) (Staphylococcus aureus): +
- RED (substrate reduced or not) (Staphylococcus aureus): Y
- Co (growth, absorbance at 660 nm) [1]: +
- Decol (substrate decolourized, decrease in absorbance) [1]: +/−
- Fluo (fluorescence multiplied by 2 relative to substrate-free control) [1]: +
- RED (substrate reduced or not) [1]: Y
- Co (growth, absorbance at 660 nm) (Acinetobacter baumanii): +
- Decol (substrate decolourized, decrease in absorbance) (Acinetobacter baumanii): −
- Fluo (fluorescence multiplied by 2 relative to substrate-free control) (Acinetobacter baumanii): +
- RED (substrate reduced or not) (Acinetobacter baumanii): Y
- Co (growth, absorbance at 660 nm) (Enterococcus faecalis): +
- Decol (substrate decolourized, decrease in absorbance) (Enterococcus faecalis): +
- Fluo (fluorescence multiplied by 2 relative to substrate-free control) (Enterococcus faecalis): +
- RED (substrate reduced or not) (Enterococcus faecalis): Y
